Measured values published in PMC5733478, “A Non-imaging High Throughput Approach to Chemical Library Screening at the Unmodified Adenosine-A3 Receptor in Living Cells” (Frontiers in Pharmacology, 2017).
Counter-ions that a name gives are not always drawn. Like-named read-outs stand apart in the source and are kept apart here.

Experiments:
[1] = molecular target: T1, human A3AR (Homo sapiens, UniProt P0DMS8); assay: LOPAC library primary screen: single concentration (10 μM) inhibition of 25 nM CA200645 binding, PHERAstar FS
T1 construct: expressed in transfected cells
T1 sequence (P0DMS8 1-318): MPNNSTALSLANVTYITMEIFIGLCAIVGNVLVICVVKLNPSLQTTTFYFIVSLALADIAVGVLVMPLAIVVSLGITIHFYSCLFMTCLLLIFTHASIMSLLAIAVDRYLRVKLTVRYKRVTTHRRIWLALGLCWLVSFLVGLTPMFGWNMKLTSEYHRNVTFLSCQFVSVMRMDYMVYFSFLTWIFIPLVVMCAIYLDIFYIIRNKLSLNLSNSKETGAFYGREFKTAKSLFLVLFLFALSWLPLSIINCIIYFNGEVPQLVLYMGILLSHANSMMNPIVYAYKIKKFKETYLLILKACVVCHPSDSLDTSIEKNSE

[2] = molecular target: T2, β2AR (Homo sapiens, UniProt P07550); assay: HTS (PHERAstar FS) fluorescent ligand competition binding in live CHO cells, 10 nM BODIPY-TMR-CGP tracer; conditions: for β2AR % Total binding at 10 μM: 10 μM compound, 10 nM BODIPY-TMR-CGP, mean ± SEM, n=3
T2 construct: expressed in transfected cells
T2 sequence (P07550 whole entry): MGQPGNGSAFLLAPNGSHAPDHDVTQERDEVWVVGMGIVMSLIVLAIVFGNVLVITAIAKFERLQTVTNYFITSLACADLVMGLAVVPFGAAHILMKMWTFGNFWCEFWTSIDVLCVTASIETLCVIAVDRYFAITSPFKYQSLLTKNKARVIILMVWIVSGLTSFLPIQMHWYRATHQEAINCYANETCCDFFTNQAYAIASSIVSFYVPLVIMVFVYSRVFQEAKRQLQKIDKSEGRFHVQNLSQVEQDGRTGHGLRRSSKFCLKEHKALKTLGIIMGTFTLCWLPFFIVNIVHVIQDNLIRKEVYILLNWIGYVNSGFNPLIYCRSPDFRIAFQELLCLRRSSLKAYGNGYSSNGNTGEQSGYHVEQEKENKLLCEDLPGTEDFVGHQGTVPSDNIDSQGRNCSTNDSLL
Description: (§1) CHO cells stably expressing the A3AR, A1AR, β1AR or β2AR were seeded into the central 60 wells (for high content confocal analysis) or every well (high throughput analysis) of a 96-well clear-bottomed, black-walled plate (Greiner BioOne) and grown to confluency. […] Cells were incubated for 1h at 37°C/5% CO2. Buffer was then removed from each well, cells washed once in HBSS and fresh HBSS added at room temperature. Plates were then immediately subjected to high content or HTS analysis as detailed below.
(§2) High throughput analysis was performed using a PHERAstar FS plate reader (BMG Technologies). […] Optimal focal height was determined automatically and total fluorescence intensity was assessed by taking 81 reads per well.
(§3) Competition binding curves were fitted to the following equation using GraphPad Prism 5 (GraphPad Software): […]
(§4) where [L] is the concentration and KD is the equilibrium dissociation constant of the fluorescent ligand.

[3] = molecular target: T1, human A3AR; assay: HTS (PHERAstar FS) fluorescent ligand competition binding in live CHO cells, 25 nM CA200645 tracer; conditions: for displacement of CA200645 binding at the A3AR in full inhibition curves: secondary screen of top ten hits, highest concentration 10 μM, affinity not determinable
Description: as §1, §2, §3, §4

[4] = molecular target: T3, human A1AR (Homo sapiens, UniProt P30542); assay: as above; conditions: secondary screen of LOPAC hits; for Ki: 25 nM CA200645, mean ± SEM, n=3, read-out: A1AR pKi (selected LOPAC hits) (converted)
T3 construct: expressed in transfected cells
T3 sequence (P30542 1-326): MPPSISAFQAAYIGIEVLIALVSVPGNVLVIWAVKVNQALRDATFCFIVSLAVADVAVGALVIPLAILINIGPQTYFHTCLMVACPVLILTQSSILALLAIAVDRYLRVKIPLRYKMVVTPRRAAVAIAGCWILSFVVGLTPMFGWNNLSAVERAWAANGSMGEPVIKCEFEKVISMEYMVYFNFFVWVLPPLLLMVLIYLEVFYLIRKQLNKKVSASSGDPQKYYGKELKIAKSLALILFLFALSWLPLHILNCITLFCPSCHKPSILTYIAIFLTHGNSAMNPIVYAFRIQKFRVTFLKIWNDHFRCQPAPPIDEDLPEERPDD
Description: as §1, §2, §3, §4

[5] = molecular target: A3AR; conditions: ref Stoddart et al. ([2012]); cited from earlier work
[6] = molecular target: T1, human A3AR; assay: HTS (PHERAstar FS) fluorescent ligand competition binding in live CHO cells, 5 nM AV039 tracer
Description: as §1, §2, §3, §4

[7] = molecular target: A1AR; conditions: cited from earlier work
[8] = secondary screen of LOPAC hits, full inhibition curves, 25 nM CA200645, mean ± SEM, n=3, read-out: A3AR pKi (selected LOPAC hits) (converted)
[9] = % of control wells (1% DMSO and 25 nM CA200645), compounds at 10 µM, whole live cells expressing the A3AR, mean ± SD, three experiments in duplicate
[10] = compounds tested at 10 µM, % of control wells (1% DMSO and 25 nM CA200645), whole live cells expressing the A3AR, mean ± SD, three experiments in duplicate

CN(C)S(=O)(=O)c1ccc2c(c1)/C(=C/c1cc3c([nH]1)CCCC3)C(=O)N2 [SU 6656]
% 25 nM CA200645 binding [1]: 17.3 ± 1.8%
β2AR % Total binding at 10 μM [2]: 128.4 ± 18.4%
Ki [3, 8]: 0.676 µM
inhibition of CA200645 binding at the A1AR [4]: only inhibited binding at the highest concentration tested

O=c1c(O)c(-c2ccc(O)c(O)c2)oc2cc(O)cc(O)c12 [quercetin]
displacement of CA200645 binding at the A3AR in full inhibition curves [3]: only displaced the binding of CA200645 at the highest concentration tested

Nc1nc(NCCc2ccc(O)cc2)nc2nc(-c3ccco3)nn12 [ZM241385]
Literature values (A3AR) [5]: 6.74
Ki ([6]; CHO cells expressing A3AR, 5 nM AV039, PHERAstar HTS assay, mean ± SEM, read-out: pKi A3AR AV039 (converted)): 0.479 µM
Ki ([3]; CHO cells expressing A3AR, 25 nM CA200645, PHERAstar HTS assay, mean ± SEM, read-out: pKi A3AR CA200645 (converted)): 0.234 µM

O=C(Cc1ccccc1)Nc1nc2ccc(Cl)cc2c2nc(-c3ccco3)nn12 [MRS1220]
Literature values (A1AR) ([7]; A1AR, ref Stoddart et al. ([2012])): 7.14

Nc1nc2ccc(Cl)cc2c2nc(-c3ccco3)nn12 [CGS15943]
Literature values (A3AR) [5]: 8.18
% Total CA200645 binding [1]: 30.0 ± 3.0%
Ki [6]: 0.0123 µM
β2AR % Total binding at 10 μM [2]: 115.4 ± 5.0%
effect on binding of BODIPY-TMR-CGP at the β2AR ([2]; secondary screen of LOPAC hits): no effect
Ki [3]: 0.0123 µM

Cn1c(=O)c(-c2c(Cl)cccc2Cl)cc2cnc(Nc3ccc(N4CCOCC4)cc3)nc21 [PD173952, reference compound]
% 25 nM CA200645 binding [1]: 25.6 ± 5.3%
displacement of CA200645 binding at the A3AR in full inhibition curves [3]: only displaced the binding of CA200645 at the highest concentration tested

O=C1Cc2c([nH]c3ccc(Br)cc23)-c2ccccc2N1 [kenpaullone, reference compound]
% 25 nM CA200645 binding [1]: 30.6 ± 6.6%
displacement of CA200645 binding at the A3AR in full inhibition curves [3]: only displaced the binding of CA200645 at the highest concentration tested

Oc1ccc(/C=C/c2ccc(/C=C/c3ccc(O)cc3)c(Br)c2)cc1 [K114]
% 25 nM CA200645 binding [1, 9]: 24.6 ± 5.8%
β2AR % Total binding at 10 μM [2]: 95.8 ± 5.5%
Ki [3, 8]: 0.372 µM
Ki [4]: 0.275 µM

CC(=O)c1c(O)c(C)c(O)c(Cc2c(O)c3c(c(C(=O)/C=C/c4ccccc4)c2O)OC(C)(C)C=C3)c1O [rottlerin, reference compound]
% 25 nM CA200645 binding [1]: 22.8 ± 1.4%
displacement of CA200645 binding at the A3AR in full inhibition curves [3]: only displaced the binding of CA200645 at the highest concentration tested

CC1=C(/C=C/C(C)=C/C=C/C(C)=C/C(=O)Nc2ccc(O)cc2)C(C)(C)CCC1 [Retinoic acid p-hydroxyanilide]
% 25 nM CA200645 binding [1, 9]: 26.5 ± 2.0%
β2AR % Total binding at 10 μM [2]: 102.7 ± 5.1%
Ki [3, 8]: 0.741 µM
Ki [4]: 0.912 µM

CC(C)C[C@H](NP(=O)([O-])O[C@H]1O[C@H](C)[C@@H](O)[C@H](O)[C@@H]1O)C(=O)N[C@@H](Cc1c[nH]c2ccccc12)C(=O)[O-].[Na+].[Na+] [Phosphoramidon disodium]
% 25 nM CA200645 binding [1, 10]: 101.2 ± 7.1%

NC/C=C/C(=O)O [(E)-4-amino-2-butenoic acid]
% 25 nM CA200645 binding [1]: 101.5 ± 12.6%

CC/C(=C(\c1ccccc1)c1ccc(OCCN(C)C)cc1)c1ccccc1 [Tamoxifen]
% 25 nM CA200645 binding [1]: 83.1 ± 23.3%

CC(=O)NC[C@H]1CN(c2ccc(N3CCOCC3)c(F)c2)C(=O)O1 [Linezolid]
% 25 nM CA200645 binding [1]: 100.5 ± 2.1%

Cl.NCC(O)C1CCCCCCC1 (stereo not shown)
% 25 nM CA200645 binding [1]: 94.5 ± 6.6%

CCN(CC)C(=S)SSC(=S)N(CC)CC [Tetraethylthiuram disulfide]
% 25 nM CA200645 binding [1]: 88.1 ± 9.2%

COc1cccc2c1[C@@H]1CN(CCCCn3c(=O)[nH]c4c(sc5ncc(-c6ccccc6)nc54)c3=O)C[C@@H]1CO2 [Fiduxosin hydrochloride]
% 25 nM CA200645 binding [1, 10]: 92.6 ± 13.4%

OCCN1CCN(CCCN2c3ccccc3Sc3ccc(Cl)cc32)CC1 [Perphenazine]
% 25 nM CA200645 binding [1]: 88.8 ± 23.6%

CC(C)[N+]1(C)[C@@H]2CC[C@H]1C[C@@H](OC(=O)C(CO)c1ccccc1)C2 (stereo partly shown) [Ipratropium bromide]
% 25 nM CA200645 binding [1]: 106.7 ± 26.2%

Cn1cc(C(=O)OCC2CCN(CCNS(C)(=O)=O)CC2)c2ccccc21 [GR 113808]
% 25 nM CA200645 binding [1]: 92.8 ± 8.0%

Clc1ccc(N2C[C@H]3CC[C@@H](C2)N3)nn1 [DBO-83]
% 25 nM CA200645 binding [1]: 97.7 ± 11.0%

CC(C)=CCOc1c2occc2cc2ccc(=O)oc12 [Imperatorin]
% 25 nM CA200645 binding [1]: 47.6 ± 2.3%

CC(=O)OC(C)C[N+](C)(C)C.[Cl-] (stereo not drawn) [Acetyl-beta-methylcholine chloride]
% 25 nM CA200645 binding [1]: 91.4 ± 19.2%

CA200645
Kd ([7]; ref Stoddart et al., [2012], read-out: KD of fluorescent ligand at the A1AR): 0.011 µM

CCOC(=O)C(C)(C)Oc1ccc(Cl)cc1 [Clofibrate]
% 25 nM CA200645 binding ([1]; % of control wells (1% DMSO and 25 nM CA200645), compounds at 10 µM, […], mean ± SD, three experiments in duplicate): 81.3 ± 24.9%

Cn1c(=O)c2[nH]c(-c3ccccc3)nc2n(C)c1=O [1,3-Dimethyl-8-phenylxanthine]
% 25 nM CA200645 binding [1]: 91.8 ± 4.8%

Cl.NCCS [Cysteamine hydrochloride]
% 25 nM CA200645 binding [1]: 89.3 ± 6.0%

COc1ccc2c(c1)CC[C@@H]1[C@@H]2CC[C@]2(C)[C@@H](NCCCCCCN3C(=O)CCC3=O)CC[C@@H]12 [U-73343]
% 25 nM CA200645 binding [1]: 99.9 ± 5.3%

CCOC(=O)[N-]c1cn(N2CCOCC2)n[o+]1 [Molsidomine]
% 25 nM CA200645 binding [1]: 91.8 ± 17.4%

O=P1(N(CCCl)CCCl)NCCCO1 (stereo not shown) [Cyclophosphamide monohydrate]
% 25 nM CA200645 binding [1]: 79.2 ± 18.9%

CCCn1c(=O)c2c(ncn2C)n(CCC)c1=O [1,3-Dipropyl-7-methylxanthine]
% 25 nM CA200645 binding [1]: 102.9 ± 21.6%

COc1ccc2c(c[n+](C)c3c4cc5c(cc4ccc23)OCO5)c1OC [Chelerythrine chloride]
% 25 nM CA200645 binding [1]: 73.9 ± 3.7%

O=c1oc(Cl)c(Cl)c2ccccc12 [3,4-Dichloroisocoumarin]
% 25 nM CA200645 binding [1]: 95.8 ± 9.3%

c1ccc2c(CC3=NCCN3)cccc2c1 [Naphazoline hydrochloride]
% 25 nM CA200645 binding [1]: 105.3 ± 13.5%

Br.COc1ccccc1N1CCN(CCCCN2C(=O)c3ccccc3C2=O)CC1 [NAN-190 hydrobromide]
% 25 nM CA200645 binding [1]: 91.1 ± 29.0%

CC(C)NC(C)Cc1ccc(I)cc1 (stereo not shown) [Iofetamine hydrochloride]
% 25 nM CA200645 binding [1]: 100.8 ± 7.1%
